Results on 2 compounds are retold here after ChEMBL document CHEMBL1151570, “Preparation and Properties of a fibrinogen receptor antagonist containing the Arg-Gly-Asp sequence and nitroxide radicals” (Bioorg Med Chem Lett, 1993).

The target of experiment [1] is Integrin alpha-IIb/beta-3 (Homo sapiens, UniProt P05106+P08514). Kind of experiment: Dissociation constant for platelet glycoprotein alphaIIb-beta3 integrin from human platelets.
The species entered for the next experiment is Homo sapiens. Kind of experiment: Compound was evaluated for in vitro inhibition of ADP-induced aggregation of human platelet rich plasma. Type of experiment: functional.

In general, Ki refers to a dissociation constant, usually derived from enzyme kinetics or from competition with a known ligand. High values mean weaker binding, low ones tighter binding. As usually defined, the IC50 is the concentration that gives 50% inhibition.

Chain of Integrin alpha-IIb/beta-3 (P05106 27-788 limits assumed): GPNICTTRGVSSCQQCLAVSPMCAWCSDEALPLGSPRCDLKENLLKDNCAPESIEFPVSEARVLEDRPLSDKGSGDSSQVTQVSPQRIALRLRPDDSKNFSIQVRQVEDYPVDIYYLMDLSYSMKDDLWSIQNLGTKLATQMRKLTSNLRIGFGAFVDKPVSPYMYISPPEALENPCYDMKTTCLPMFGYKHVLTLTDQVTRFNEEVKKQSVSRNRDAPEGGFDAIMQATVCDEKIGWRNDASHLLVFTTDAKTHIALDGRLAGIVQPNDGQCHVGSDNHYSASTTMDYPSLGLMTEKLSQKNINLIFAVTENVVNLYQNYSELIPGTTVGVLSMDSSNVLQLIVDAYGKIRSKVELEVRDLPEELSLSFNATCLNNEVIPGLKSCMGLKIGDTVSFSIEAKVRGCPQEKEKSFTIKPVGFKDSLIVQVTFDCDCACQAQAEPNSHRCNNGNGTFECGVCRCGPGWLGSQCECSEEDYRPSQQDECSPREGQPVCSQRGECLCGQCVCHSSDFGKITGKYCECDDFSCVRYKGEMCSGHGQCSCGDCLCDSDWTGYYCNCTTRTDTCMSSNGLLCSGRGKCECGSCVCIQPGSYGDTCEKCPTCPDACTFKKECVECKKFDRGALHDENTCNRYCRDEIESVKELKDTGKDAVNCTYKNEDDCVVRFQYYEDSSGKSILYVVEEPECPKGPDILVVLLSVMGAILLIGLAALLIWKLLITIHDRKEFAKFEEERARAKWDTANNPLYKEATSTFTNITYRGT
Chain of Integrin alpha-IIb/beta-3 (P08514 32-887 limits assumed): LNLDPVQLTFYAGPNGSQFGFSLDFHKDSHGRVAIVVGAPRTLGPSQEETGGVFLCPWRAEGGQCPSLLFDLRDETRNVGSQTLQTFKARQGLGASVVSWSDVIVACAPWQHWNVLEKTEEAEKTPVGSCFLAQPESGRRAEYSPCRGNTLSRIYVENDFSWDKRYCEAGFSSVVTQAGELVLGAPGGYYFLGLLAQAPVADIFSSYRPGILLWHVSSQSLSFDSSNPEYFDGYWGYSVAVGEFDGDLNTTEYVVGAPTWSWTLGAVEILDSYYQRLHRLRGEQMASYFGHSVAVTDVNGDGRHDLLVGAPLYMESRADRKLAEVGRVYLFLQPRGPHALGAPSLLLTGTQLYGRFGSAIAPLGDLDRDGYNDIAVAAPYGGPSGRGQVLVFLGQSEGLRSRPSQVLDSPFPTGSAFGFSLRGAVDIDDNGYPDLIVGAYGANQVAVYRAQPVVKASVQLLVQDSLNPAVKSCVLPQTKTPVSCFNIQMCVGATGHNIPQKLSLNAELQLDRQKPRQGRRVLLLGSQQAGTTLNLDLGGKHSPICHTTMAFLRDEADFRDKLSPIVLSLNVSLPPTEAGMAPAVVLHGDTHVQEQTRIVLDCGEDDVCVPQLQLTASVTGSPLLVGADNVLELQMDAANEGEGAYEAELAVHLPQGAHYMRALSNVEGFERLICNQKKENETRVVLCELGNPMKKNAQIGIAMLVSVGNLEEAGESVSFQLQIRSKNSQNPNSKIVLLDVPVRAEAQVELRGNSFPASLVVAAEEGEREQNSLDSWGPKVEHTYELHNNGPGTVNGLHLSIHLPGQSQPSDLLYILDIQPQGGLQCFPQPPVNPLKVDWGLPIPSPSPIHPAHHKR
Chain of Integrin alpha-IIb/beta-3 (P08514 891-1039 limits assumed): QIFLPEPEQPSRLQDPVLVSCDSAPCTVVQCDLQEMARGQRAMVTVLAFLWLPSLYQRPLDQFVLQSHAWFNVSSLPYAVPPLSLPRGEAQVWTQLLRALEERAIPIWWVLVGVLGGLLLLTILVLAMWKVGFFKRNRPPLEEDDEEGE

Compound `CC1(C)CC(NC(=O)CBr)CC(C)(C)N1[O]` displayed a Ki in experiment [1] above 1000 µM. In the experiment listed under Homo sapiens, this compound had an IC50 above 200 µM.
The compound `CN(C(=O)c1ccccc1SCC(=O)NC1CC(C)(C)N([O])C(C)(C)C1)[C@@H](CCCN=C(N)N)C(=O)NCC(=O)N[C@@H](C(=O)O)C(=O)Nc1ccccc1SCC(=O)NC1CC(C)(C)N([O])C(C)(C)C1` had an inhibition constant Ki in experiment [1] of 0.11 µM. For the same compound, in the experiment listed under Homo sapiens, inhibition was half-maximal at 1.02 µM (IC50).
